Assay results reported in paper doi:10.1101/2024.08.13.607785v1 (biorxiv, 2024).

How the values were obtained:
[1] = target: Cyclin-dependent kinase 12 ; CDK12 ; Q9NYV4 (Homo sapiens, UniProt Q9NYV4); assay: biochemical; design: species or system human cell line lysate
[2] = target: Cyclin-dependent kinase 16 ; CDK16 ; Q00536 (Homo sapiens, UniProt Q00536); assay: biochemical; design: species or system human cell line lysate
[3] = target: Cyclin-dependent-like kinase 5 ; CDK5 ; Q00535 (Homo sapiens, UniProt Q00535); assay: biochemical; design: species or system human cell line lysate
[4] = target: Cyclin-dependent kinase 1 ; CDK1 ; P06493 (Homo sapiens, UniProt P06493); assay: biochemical; design: species or system human cell line lysate
[5] = target: Cyclin-dependent kinase 10 ; CDK10 ; Q15131 (Homo sapiens, UniProt Q15131); assay: biochemical; design: species or system human cell line lysate
[6] = target: Cyclin-dependent kinase 6 ; CDK6 ; Q00534 (Homo sapiens, UniProt Q00534); assay: biochemical; design: species or system human cell line lysate
[7] = target: Activated CDC42 kinase 1 ; TNK2 ; Q07912 (Homo sapiens, UniProt Q07912); design: species or system mixed lysate of K562, MV4-11, THP-1, NCI-H1155; conditions: DDA-MS residual binding; binder
[8] = target: Isoform 3 of Serine/threonine-protein kinase SIK3 ; SIK3-7 ; Q9Y2K2-7 (Homo sapiens, UniProt Q9Y2K2); design: species or system mixed lysate of K562, MV4-11, THP-1, NCI-H1155; conditions: DDA-MS residual binding; binder
[9] = target: Serine/threonine-protein kinase LMTK2 ; LMTK2 ; Q8IWU2 (Homo sapiens, UniProt Q8IWU2); design: species or system mixed lysate of K562, MV4-11, THP-1, NCI-H1155; conditions: DDA-MS residual binding; binder
[10] = target: LIM domain kinase 2 ; LIMK2 ; P53671 (Homo sapiens, UniProt P53671); design: species or system mixed lysate of K562, MV4-11, THP-1, NCI-H1155; conditions: DDA-MS residual binding; binder
[11] = target: Tyrosine-protein kinase Yes ; YES1 ; P07947 (Homo sapiens, UniProt P07947); design: species or system mixed lysate of K562, MV4-11, THP-1, NCI-H1155; conditions: binder
[12] = target: Tyrosine-protein kinase HCK ; HCK ; P08631 (Homo sapiens, UniProt P08631); design: species or system mixed lysate of K562, MV4-11, THP-1, NCI-H1155; conditions: DDA-MS residual binding; binder
[13] = target: Phosphatidylinositol 4-kinase alpha ; PI4KA ; P42356 (Homo sapiens, UniProt P42356); design: species or system mixed lysate of K562, MV4-11, THP-1, NCI-H1155; conditions: DDA-MS residual binding; binder

Sequence of Cyclin-dependent kinase 12 ; CDK12 ; Q9NYV4 (Q9NYV4 whole entry, one chain of several): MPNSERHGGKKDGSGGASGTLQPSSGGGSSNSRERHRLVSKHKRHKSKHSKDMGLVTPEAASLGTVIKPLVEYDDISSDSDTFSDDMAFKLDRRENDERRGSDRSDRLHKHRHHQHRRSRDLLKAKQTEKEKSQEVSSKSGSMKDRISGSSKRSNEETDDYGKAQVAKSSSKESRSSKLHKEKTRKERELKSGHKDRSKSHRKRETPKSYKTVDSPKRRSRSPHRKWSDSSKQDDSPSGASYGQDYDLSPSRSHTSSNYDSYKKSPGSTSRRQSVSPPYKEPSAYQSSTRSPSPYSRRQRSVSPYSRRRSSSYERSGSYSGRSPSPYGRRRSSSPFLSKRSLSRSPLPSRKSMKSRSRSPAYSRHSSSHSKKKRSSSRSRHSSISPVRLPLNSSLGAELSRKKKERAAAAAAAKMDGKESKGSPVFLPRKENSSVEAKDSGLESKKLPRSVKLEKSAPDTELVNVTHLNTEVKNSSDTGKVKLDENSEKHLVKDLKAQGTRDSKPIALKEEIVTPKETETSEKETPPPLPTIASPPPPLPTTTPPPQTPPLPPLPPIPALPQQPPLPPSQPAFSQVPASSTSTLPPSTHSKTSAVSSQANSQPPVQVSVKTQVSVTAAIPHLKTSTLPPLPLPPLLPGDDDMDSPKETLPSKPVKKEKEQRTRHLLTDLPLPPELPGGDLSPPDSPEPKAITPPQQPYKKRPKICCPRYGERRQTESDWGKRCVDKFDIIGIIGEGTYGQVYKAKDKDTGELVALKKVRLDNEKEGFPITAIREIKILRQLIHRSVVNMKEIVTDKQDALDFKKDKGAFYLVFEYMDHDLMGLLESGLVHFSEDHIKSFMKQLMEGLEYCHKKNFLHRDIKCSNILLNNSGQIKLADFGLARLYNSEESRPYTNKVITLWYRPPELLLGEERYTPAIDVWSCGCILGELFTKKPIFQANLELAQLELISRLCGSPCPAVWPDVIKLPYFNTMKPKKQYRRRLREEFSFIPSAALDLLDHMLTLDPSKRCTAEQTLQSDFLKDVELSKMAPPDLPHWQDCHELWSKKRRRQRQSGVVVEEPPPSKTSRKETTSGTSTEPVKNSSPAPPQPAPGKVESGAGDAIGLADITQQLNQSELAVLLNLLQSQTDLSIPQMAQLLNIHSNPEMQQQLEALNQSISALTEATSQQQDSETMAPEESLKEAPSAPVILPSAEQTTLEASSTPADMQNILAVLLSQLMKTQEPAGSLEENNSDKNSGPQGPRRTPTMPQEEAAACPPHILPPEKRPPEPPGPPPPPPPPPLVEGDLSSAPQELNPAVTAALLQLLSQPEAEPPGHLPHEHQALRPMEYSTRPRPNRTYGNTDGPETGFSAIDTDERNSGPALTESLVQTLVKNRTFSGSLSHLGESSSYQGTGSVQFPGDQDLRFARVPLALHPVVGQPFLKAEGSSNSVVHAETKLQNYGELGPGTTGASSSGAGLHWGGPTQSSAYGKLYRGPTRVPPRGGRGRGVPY
Sequence of Tyrosine-protein kinase Yes ; YES1 ; P07947 (P07947 whole entry): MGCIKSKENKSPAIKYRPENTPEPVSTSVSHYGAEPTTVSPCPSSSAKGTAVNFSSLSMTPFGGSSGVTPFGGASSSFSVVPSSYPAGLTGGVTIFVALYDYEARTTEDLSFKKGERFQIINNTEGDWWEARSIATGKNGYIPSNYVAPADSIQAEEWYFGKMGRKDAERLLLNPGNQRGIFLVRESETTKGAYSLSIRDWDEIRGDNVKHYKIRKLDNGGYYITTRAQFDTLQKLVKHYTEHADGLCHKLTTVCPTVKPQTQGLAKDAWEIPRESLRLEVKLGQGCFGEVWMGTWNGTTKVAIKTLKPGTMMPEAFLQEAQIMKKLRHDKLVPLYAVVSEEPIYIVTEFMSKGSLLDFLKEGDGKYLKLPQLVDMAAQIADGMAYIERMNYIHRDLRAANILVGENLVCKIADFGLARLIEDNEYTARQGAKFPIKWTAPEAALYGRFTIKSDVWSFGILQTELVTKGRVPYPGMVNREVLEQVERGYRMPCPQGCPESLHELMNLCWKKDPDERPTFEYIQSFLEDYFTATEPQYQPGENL
Sequence of Cyclin-dependent kinase 10 ; CDK10 ; Q15131 (Q15131 whole entry, one chain of several): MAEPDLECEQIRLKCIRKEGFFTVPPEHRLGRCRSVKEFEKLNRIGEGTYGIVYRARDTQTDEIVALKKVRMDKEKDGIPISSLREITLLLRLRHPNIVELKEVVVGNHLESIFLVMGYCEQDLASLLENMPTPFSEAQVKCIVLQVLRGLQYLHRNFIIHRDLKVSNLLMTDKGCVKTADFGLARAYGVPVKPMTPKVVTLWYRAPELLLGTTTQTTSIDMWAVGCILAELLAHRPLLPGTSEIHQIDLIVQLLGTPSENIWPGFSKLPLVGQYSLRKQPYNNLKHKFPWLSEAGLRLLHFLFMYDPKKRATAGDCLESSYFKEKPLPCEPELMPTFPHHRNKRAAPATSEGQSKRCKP
Sequence of LIM domain kinase 2 ; LIMK2 ; P53671 (P53671 whole entry, the tested form may be a part): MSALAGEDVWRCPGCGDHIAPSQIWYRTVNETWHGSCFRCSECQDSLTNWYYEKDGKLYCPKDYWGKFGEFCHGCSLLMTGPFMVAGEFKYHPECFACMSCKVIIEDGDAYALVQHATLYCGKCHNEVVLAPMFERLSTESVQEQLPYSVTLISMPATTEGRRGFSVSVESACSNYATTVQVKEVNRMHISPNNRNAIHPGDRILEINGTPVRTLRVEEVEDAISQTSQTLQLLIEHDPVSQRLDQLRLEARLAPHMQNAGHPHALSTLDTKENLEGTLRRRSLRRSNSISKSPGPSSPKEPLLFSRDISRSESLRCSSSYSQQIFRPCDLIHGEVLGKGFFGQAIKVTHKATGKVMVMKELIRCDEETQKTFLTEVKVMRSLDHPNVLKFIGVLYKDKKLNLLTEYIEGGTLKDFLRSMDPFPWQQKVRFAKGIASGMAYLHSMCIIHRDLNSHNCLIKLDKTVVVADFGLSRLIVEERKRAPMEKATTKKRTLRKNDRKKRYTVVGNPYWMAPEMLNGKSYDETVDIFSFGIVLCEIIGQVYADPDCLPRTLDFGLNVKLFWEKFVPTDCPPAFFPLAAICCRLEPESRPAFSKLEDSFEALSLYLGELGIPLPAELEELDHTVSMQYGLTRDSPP
Sequence of Activated CDC42 kinase 1 ; TNK2 ; Q07912 (Q07912 whole entry, canonical isoform): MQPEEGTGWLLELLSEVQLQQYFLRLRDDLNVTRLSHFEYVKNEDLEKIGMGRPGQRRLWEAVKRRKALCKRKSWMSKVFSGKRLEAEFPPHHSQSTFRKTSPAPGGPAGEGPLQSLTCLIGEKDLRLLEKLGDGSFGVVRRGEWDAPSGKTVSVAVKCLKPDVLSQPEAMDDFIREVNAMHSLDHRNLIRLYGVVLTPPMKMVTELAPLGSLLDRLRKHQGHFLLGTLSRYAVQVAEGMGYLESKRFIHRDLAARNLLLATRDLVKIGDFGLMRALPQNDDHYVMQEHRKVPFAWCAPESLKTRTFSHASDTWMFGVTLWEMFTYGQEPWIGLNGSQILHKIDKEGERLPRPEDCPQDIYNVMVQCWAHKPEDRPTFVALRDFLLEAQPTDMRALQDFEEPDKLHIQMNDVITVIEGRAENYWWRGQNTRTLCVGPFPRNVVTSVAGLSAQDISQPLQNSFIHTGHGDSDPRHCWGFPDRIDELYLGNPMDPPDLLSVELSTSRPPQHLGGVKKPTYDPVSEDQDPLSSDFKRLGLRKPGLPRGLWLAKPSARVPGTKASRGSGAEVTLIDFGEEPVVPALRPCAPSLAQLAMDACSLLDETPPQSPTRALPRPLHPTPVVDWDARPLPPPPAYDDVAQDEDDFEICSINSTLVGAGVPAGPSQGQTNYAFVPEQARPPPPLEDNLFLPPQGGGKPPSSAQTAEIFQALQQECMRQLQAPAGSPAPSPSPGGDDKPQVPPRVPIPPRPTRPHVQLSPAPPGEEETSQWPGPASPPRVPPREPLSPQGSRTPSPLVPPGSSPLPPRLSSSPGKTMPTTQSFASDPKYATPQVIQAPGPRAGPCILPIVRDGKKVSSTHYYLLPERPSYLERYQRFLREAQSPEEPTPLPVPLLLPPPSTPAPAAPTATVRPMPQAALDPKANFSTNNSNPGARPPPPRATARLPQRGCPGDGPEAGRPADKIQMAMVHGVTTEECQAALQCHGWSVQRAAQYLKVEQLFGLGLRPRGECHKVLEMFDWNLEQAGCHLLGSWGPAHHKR
Sequence of Cyclin-dependent kinase 1 ; CDK1 ; P06493 (P06493 whole entry, one chain of several): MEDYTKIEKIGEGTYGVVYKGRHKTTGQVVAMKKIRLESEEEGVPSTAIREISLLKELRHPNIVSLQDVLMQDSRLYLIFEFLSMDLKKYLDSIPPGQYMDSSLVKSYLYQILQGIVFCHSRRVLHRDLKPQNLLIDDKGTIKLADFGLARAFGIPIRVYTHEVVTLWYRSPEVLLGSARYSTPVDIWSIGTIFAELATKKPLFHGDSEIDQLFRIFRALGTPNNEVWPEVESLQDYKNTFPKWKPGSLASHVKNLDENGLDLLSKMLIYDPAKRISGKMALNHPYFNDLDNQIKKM
Sequence of Cyclin-dependent-like kinase 5 ; CDK5 ; Q00535 (Q00535 whole entry, one chain of several): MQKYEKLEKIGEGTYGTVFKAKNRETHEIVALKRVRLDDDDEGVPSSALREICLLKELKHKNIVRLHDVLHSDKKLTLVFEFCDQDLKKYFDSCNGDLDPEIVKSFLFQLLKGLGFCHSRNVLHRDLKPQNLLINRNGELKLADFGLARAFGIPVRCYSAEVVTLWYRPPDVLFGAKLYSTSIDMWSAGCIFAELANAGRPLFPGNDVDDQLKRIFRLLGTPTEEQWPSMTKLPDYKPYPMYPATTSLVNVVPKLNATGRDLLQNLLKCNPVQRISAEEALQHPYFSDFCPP
Sequence of Cyclin-dependent kinase 6 ; CDK6 ; Q00534 (Q00534 whole entry, one chain of several): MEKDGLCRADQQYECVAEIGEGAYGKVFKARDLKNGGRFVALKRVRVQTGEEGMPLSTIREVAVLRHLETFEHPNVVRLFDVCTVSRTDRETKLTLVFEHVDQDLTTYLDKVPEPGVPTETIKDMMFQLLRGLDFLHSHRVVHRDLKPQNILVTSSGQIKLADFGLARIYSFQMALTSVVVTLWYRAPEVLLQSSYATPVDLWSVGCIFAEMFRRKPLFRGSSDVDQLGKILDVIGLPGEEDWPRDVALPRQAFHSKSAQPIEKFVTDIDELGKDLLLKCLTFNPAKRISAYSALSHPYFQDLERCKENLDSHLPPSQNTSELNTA

Structure (SMILES): COc1cc(F)ccc1-c1ncnc(Nc2cccc(C[S@](C)(=N)=O)c2)n1 [BAY-1143572]
- IC50 [1]: > 10 µM
- IC50 [2]: > 10 µM

Structure (SMILES): COc1cc(F)ccc1-c1cc(Nc2cc(CS(C)(=N)=O)ccn2)ncc1F (stereo not shown) [BAY-1251152]
- IC50 [3]: > 10 µM
- IC50 [4]: > 10 µM
- IC50 [5]: 1.09 µM
- IC50 [6]: > 10 µM

Structure (SMILES): Cc1nc(Nc2ncc(C(=O)Nc3c(C)cccc3Cl)s2)cc(N2CCN(CCO)CC2)n1 [dasatinib]
- DDA-MS / % Intensity (30 µM/DMSO) [7]: 3.313%
- DDA-MS / % Intensity (30 µM/DMSO) [8]: 6.597%
- DDA-MS / % Intensity (30 µM/DMSO) [9]: 9.69%
- DDA-MS / % Intensity (30 µM/DMSO) [10]: 7.37%
- DDA-MS / % Intensity (30 µM/DMSO) [11]: 0.4709%
- DDA-MS / % Intensity (30 µM/DMSO) [12]: 2.041%
- DDA-MS / % Intensity (30 µM/DMSO) [13]: 10.66%
